A word on the IC50: it is the concentration needed to halve the response being measured.

In assay [1] the target is T1, human CB1 (Homo sapiens, UniProt P21554). Kind of assay: [35S]GTPγS binding assay, hCB1 HEK293 membranes. The format is biochemical. For orientation: GTPγS resists hydrolysis and so accumulates on activated G proteins.
Assay [2] addresses T1, human CB1. Kind of assay: hCB1 calcium mobilization assay.
Assay [3] concerns the target T1, human CB1. The format is biochemical. Particulars: operational model of allosterism; probe CP55,940.
The target in assay [4] is T1, human CB1. Nature of the assay: BRET CAMYEL cAMP assay in HEK293 3HA-hCB1 cells. The format is cell-based. (Bioluminescence resonance energy transfer reports proximity on the nanometre scale.)

Each structure is given as a SMILES string.

T1 sequence (P21554 whole entry): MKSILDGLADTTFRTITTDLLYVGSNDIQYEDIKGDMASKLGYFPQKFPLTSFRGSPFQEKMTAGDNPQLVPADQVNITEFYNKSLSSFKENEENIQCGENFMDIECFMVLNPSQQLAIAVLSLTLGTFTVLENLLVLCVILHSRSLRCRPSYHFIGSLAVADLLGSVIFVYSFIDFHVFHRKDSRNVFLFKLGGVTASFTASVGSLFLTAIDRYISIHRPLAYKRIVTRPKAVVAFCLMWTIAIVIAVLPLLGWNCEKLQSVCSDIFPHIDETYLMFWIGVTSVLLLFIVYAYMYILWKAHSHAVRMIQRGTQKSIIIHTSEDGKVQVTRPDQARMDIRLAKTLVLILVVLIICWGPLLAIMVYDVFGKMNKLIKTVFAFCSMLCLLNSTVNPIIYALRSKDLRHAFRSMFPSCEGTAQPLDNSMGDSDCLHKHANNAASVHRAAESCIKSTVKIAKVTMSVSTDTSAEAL

Consider `O=C(NCCc1cccs1)Nc1ccc(Cl)cc1` [Compound 25, 1-(4-Chlorophenyl)-3-[2-(thiophen-2-yl)ethyl]urea], for which the results for the IC50 at human CB1 [1] and on human CB1 [2] were 7.94 µM and 0.794 µM, respectively.

For `O=C(NCCc1ccc(N2CCCCC2)cc1)Nc1ccc(Cl)cc1` [Compound 9, 1-(4-Chlorophenyl)-3-{2-[4-(piperidin-1-yl)phenyl]ethyl}-urea], on human CB1 [3], the “alpha (binding cooperativity)” value came out at 5.1, the “beta (modification of probe efficacy)” value is reported as 0.09, the “logalpha (binding cooperativity)” value is listed as 0.7 ± 0.1 and the “logbeta (modification of probe efficacy)” value is −1.1 ± 0.1.

Consider `O=C(NCCc1ccccc1)Nc1ccc(Cl)cc1` [Compound 8, 3‐(4‐Chlorophenyl)‐1‐(2‐phenylethyl)urea], for which the “potency in the cAMP assay” value on human CB1 [4] was “low micromolar range”.

As to `CC(C)(CNC(=O)Nc1ccc(Cl)cc1)c1ccccc1` [Compound 15, 1-(4-Chlorophenyl)-3-(2-methyl-2-phenylpropyl)urea], the IC50 at human CB1 [2] is > 10 µM.

With `Cc1ccc(CCNC(=O)Nc2ccc(Cl)cc2)o1` [Compound 26, 1‐(4‐Chlorophenyl)‐3‐[2‐(5‐methylfuran‐2‐yl)ethyl]urea], the half-maximal inhibitory concentration (IC50) on human CB1 [4] was 3.98 µM; at human CB1 [1], 12.6 µM; at human CB1 [2], 0.251 µM. The “potency in the cAMP assay” value on human CB1 [4] is reported as “low micromolar range”.

Take `O=C(NCCc1ccsc1)Nc1ccc(Cl)cc1` [Compound 24, 1-(4-Chlorophenyl)-3-[2-(thiophen-3-yl)ethyl]urea]: the results for the concentration for half-maximal inhibition (IC50) on human CB1 [1] and on human CB1 [2] were 7.94 µM and 1.58 µM, respectively.

As for `O=C(NCc1ccccc1)Nc1ccc(Cl)cc1` [Compound 13, 3‐(4‐Chlorophenyl)‐1‐(3‐phenylmethyl)urea], on human CB1 [2], the IC50 is > 10 µM.

As to `O=C(Nc1ccc(Cl)cc1)NC1(Cc2ccccc2)CC1` [Compound 19, 1-(1-Benzylcyclopropyl)-3-(4-chlorophenyl)urea], the IC50 at human CB1 [2] is > 10 µM.

With `CN(C)c1ccc(CCNC(=O)Nc2ccc(Cl)cc2)cc1` [Compound 12, 3‐(4‐Chlorophenyl)‐1‐{2‐[4‐(dimethylamino)phenyl]ethyl}-urea], the “potency in the cAMP assay” value on human CB1 [4] was “low micromolar range”.

Turning to `CC(C)(Cc1ccccc1)NC(=O)Nc1ccc(Cl)cc1` [Compound 16, 1-(4-Chlorophenyl)-3-(2-methyl-1-phenylpropan-2-yl)urea], the IC50 on human CB1 [2] is > 10 µM.

(Values after publication PMC8506265 (Bioorganic & medicinal chemistry, 2021).)
